Reference: US10517889B2, “Modulators of SMAD7 expression” (Ionis Pharmaceuticals, Inc., priority 2017, dated 2019)
Strand notation (5' to 3'): a small letter for the sugar, then the base; units joined by * are phosphorothioate-linked, units joined directly phosphodiester-linked; [ ] holds rarer units or linkages, { } end groups; capitals alone tell only the bases. e = 2'-O-(2-methoxyethyl) (MOE); [5mC] = 5-methylcytosine; d = 2'-deoxy (DNA)

Each substance was assayed on human SMAD7 mRNA (assay: Antisense inhibition of human SMAD7 mRNA expression in Hep3B cells by 5-10-5 MOE gapmers, single concentration, electroporation, RT-PCR (Example 1, Study 1 and 2)). Settings: Study 2, electroporation with 15,000 nM antisense oligonucleotide, 5-10-5 MOE gapmers targeting SEQ ID NO: 1 and 2.
Type: cell-based
Protocol: Antisense oligonucleotides were designed to target human SMAD7 mRNA and were tested for their effects on SMAD7 mRNA expression in vitro. Cultured Hep3B cells at a density of 20,000 cells per well were transfected using electroporation with antisense oligonucleotide ION 483663 (a 5-10-5 MOE gapmer), the sequence of which overlaps with ION 28453 (a 4-10-4 MOE gapmer) was included in these assays for comparison. ION 28453 has been previously disclosed in U.S. Pat. No. 6,159,697). After a treatment period of approximately 24 hours, RNA was isolated from the cells and SMAD7 mRNA levels were measured by quantitative real-time PCR. Primer probe set RTS5062 (forward sequence […], designated herein as SEQ ID NO: 11; reverse sequence […], designated herein as SEQ ID NO: 12; probe sequence […], designated herein as SEQ ID NO: 13) was used to measure human SMAD7 mRNA levels. SMAD7 mRNA levels were adjusted according to total RNA content, as measured by RIBOGREEN®. Results are presented as percent inhibition of SMAD7 mRNA expression, relative to untreated control cells.
The newly designed chimeric antisense oligonucleotides in the Tables below were designed as 5-10-5 MOE gapmers. The gapmers are 20 nucleosides in length, wherein the central gap segment comprises of ten 2′-deoxynucleosides and is flanked by wing segments on the 5′ direction and the 3′ direction comprising five nucleosides each. Each nucleoside in the 5′ wing segment and each nucleoside in the 3′ wing segment has a 2′-MOE modification. The internucleoside linkages throughout each gapmer are phosphorothioate (P═S) linkages. All cytosine residues throughout each gapmer are 5-methylcytosines.
“Start site” indicates the 5′-most nucleoside to which the gapmer is targeted in the human gene sequence. “Stop site” indicates the 3′-most nucleoside to which the gapmer is targeted human gene sequence.
Cultured Hep3B cells at a density of 20,000 cells per well were transfected using electroporation with 5,000 nM antisense oligonucleotide.
Cultured Hep3B cells at a density of 20,000 cells per well were transfected using electroporation with 15,000 nM antisense oligonucleotide. The antisense oligonucleotides were tested in a series of experiments that had similar culture conditions as described below.
Some of the oligonucleotides presented were complementary to SMAD7 mRNA sequences RefSeqNo. NM_001190821.1 (designated herein as SEQ ID NO: 3) or RefSeqNo. NM_001190822.1 (designated herein as SEQ ID NO: 4), and are presented in a separate table shown below.

Substance | % Inhibition [%] | % inhibition of SMAD7 mRNA expression [%]
771421 (eG*e[5mC]*e[5mC]*e[5mC]*eT*dG*d[5mC]*d[5mC]*d[5mC]*dG*dG*dG*d[5mC]*d[5mC]*dG*e[5mC]*e[5mC]*eG*e[5mC]*e[5mC]; antisense) [compound 771421] | 0 | 
771423 (eG*e[5mC]*eA*eG*e[5mC]*dA*dT*d[5mC]*d[5mC]*dA*dG*d[5mC]*d[5mC]*d[5mC]*dT*eG*e[5mC]*e[5mC]*e[5mC]*eG; antisense) [compound 771423] | 39 | 
771424 (e[5mC]*e[5mC]*e[5mC]*eA*eG*dG*d[5mC]*dA*dG*d[5mC]*dA*dT*d[5mC]*d[5mC]*dA*eG*e[5mC]*e[5mC]*e[5mC]*eT; antisense) [compound 771424] | 36 | 
771428 (eT*eG*eG*e[5mC]*eA*d[5mC]*d[5mC]*dT*d[5mC]*dG*d[5mC]*dA*d[5mC]*d[5mC]*dG*e[5mC]*e[5mC]*eT*eT*eG; antisense) [compound 771428] | 47 | 
771429 (eA*e[5mC]*e[5mC]*eT*eT*dT*dG*dG*d[5mC]*dA*d[5mC]*d[5mC]*dT*d[5mC]*dG*e[5mC]*eA*e[5mC]*e[5mC]*eG; antisense) [compound 771429] | 11 | 
771431 (eG*e[5mC]*e[5mC]*e[5mC]*e[5mC]*d[5mC]*dG*dG*d[5mC]*d[5mC]*dG*d[5mC]*dG*d[5mC]*d[5mC]*eG*eG*e[5mC]*eG*e[5mC]; antisense) [compound 771431] | 37 | 
771432 (e[5mC]*eA*eG*eT*eT*dT*d[5mC]*dT*dT*dG*dA*dG*d[5mC]*dA*d[5mC]*e[5mC]*eG*eA*eG*eT; antisense) [compound 771432] | 28 | 
771436 (eG*eA*eG*e[5mC]*eA*dG*d[5mC]*dA*dG*d[5mC]*dT*d[5mC]*d[5mC]*dA*dG*e[5mC]*eT*eG*e[5mC]*e[5mC]; antisense) [compound 771436] | 27 | 
771437 (eG*e[5mC]*e[5mC]*eT*eG*dG*dA*dG*d[5mC]*dA*dG*d[5mC]*dA*dG*d[5mC]*eT*e[5mC]*e[5mC]*eA*eG; antisense) [compound 771437] | 0 | 
771440 (e[5mC]*eG*eG*e[5mC]*eT*dG*d[5mC]*dG*d[5mC]*dA*dG*dG*d[5mC]*dT*dG*e[5mC]*eG*e[5mC]*eG*e[5mC]; antisense) [compound 771440] | 48 | 
771445 (eA*e[5mC]*eA*eG*e[5mC]*d[5mC]*dT*d[5mC]*dT*dT*dG*dA*d[5mC]*dT*dT*e[5mC]*e[5mC]*eG*eA*eG; antisense) [compound 771445] | 10 | 
771447 (eA*eA*e[5mC]*eA*e[5mC]*dA*dG*d[5mC]*d[5mC]*dT*d[5mC]*dT*dT*dG*dA*e[5mC]*eT*eT*e[5mC]*e[5mC]; antisense) [compound 771447] | 19 | 
771448 (eG*eA*eG*eT*e[5mC]*dG*dG*d[5mC]*dT*dA*dA*dG*dG*dT*dG*eA*eT*eG*eG*eG; antisense) [compound 771448] | 29 | 
771452 (antisense eG*eG*eT*eA*eT*d[5mC]*dT*dG*dG*dA*dG*dT*dA*dA*dG*eG*eA*eG*eG*eG) [compound 771452] | 55 | 
771453 (antisense eA*eT*e[5mC]*eT*eG*dG*dA*d[5mC]*dA*dG*dT*d[5mC]*dT*dG*d[5mC]*eA*eG*eT*eT*eG) [compound 771453] |  | 38
771463 (antisense eG*eG*e[5mC]*eT*e[5mC]*d[5mC]*dT*dG*dG*dA*d[5mC]*dA*d[5mC]*dA*dG*eT*eA*eG*eA*eG) [compound 771463] | 10 | 

Same assay, conditions: electroporation with 15,000 nM antisense oligonucleotide (Study 2), 5-10-5 MOE gapmers targeting SEQ ID NO: 1 and 2

Substance | % Inhibition of SMAD7 mRNA [%] | % inhibition of SMAD7 mRNA expression [%]
771425 (e[5mC]*e[5mC]*eT*eT*eG*d[5mC]*d[5mC]*d[5mC]*dA*dG*dG*d[5mC]*dA*dG*d[5mC]*eA*eT*e[5mC]*e[5mC]*eA; antisense) [compound 771425] | 15 | 
771433 (eT*e[5mC]*e[5mC]*eT*eT*d[5mC]*dA*dG*dT*dT*dT*d[5mC]*dT*dT*dG*eA*eG*e[5mC]*eA*e[5mC]; antisense) [compound 771433] | 28 | 
771449 (eT*e[5mC]*eG*e[5mC]*eA*dG*dA*dG*dT*d[5mC]*dG*dG*d[5mC]*dT*dA*eA*eG*eG*eT*eG; antisense) [compound 771449] | 4 | 
771451 (antisense eA*eG*eA*e[5mC]*eT*d[5mC]*dT*dA*dG*dT*dT*d[5mC]*dG*d[5mC]*dA*eG*eA*eG*eT*e[5mC]) [compound 771451] |  | 15
771465 (antisense eA*eT*e[5mC]*e[5mC]*eA*dG*dA*dG*dA*dG*dG*dG*d[5mC]*dT*d[5mC]*e[5mC]*eT*eG*eG*eA) [compound 771465] | 16 | 

Same assay, conditions: electroporation, 5,000 nM, approximately 24 hours, relative to untreated control cells, gapmers targeting SEQ ID NO: 1 and 2

Substance | % inhibition of SMAD7 mRNA expression [%]
771428 (eT*eG*eG*e[5mC]*eA*d[5mC]*d[5mC]*dT*d[5mC]*dG*d[5mC]*dA*d[5mC]*d[5mC]*dG*e[5mC]*e[5mC]*eT*eT*eG; antisense) [compound 771428] | 0
771436 (eG*eA*eG*e[5mC]*eA*dG*d[5mC]*dA*dG*d[5mC]*dT*d[5mC]*d[5mC]*dA*dG*e[5mC]*eT*eG*e[5mC]*e[5mC]; antisense) [compound 771436] | 50
771452 (antisense eG*eG*eT*eA*eT*d[5mC]*dT*dG*dG*dA*dG*dT*dA*dA*dG*eG*eA*eG*eG*eG) [compound 771452] | 25

Same assay, conditions: electroporation, 15,000 nM antisense oligonucleotide (Study 2), 5-10-5 MOE gapmers targeting SEQ ID NO: 1 and 2

Substance | % inhibition of SMAD7 mRNA expression [%]
771425 (e[5mC]*e[5mC]*eT*eT*eG*d[5mC]*d[5mC]*d[5mC]*dA*dG*dG*d[5mC]*dA*dG*d[5mC]*eA*eT*e[5mC]*e[5mC]*eA; antisense) [compound 771425] | 1
771426 (e[5mC]*eA*e[5mC]*e[5mC]*eG*d[5mC]*d[5mC]*dT*dT*dG*d[5mC]*d[5mC]*d[5mC]*dA*dG*eG*e[5mC]*eA*eG*e[5mC]; antisense) [compound 771426] | 28
771427 (e[5mC]*e[5mC]*eT*e[5mC]*eG*d[5mC]*dA*d[5mC]*d[5mC]*dG*d[5mC]*d[5mC]*dT*dT*dG*e[5mC]*e[5mC]*e[5mC]*eA*eG; antisense) [compound 771427] | 36
771433 (eT*e[5mC]*e[5mC]*eT*eT*d[5mC]*dA*dG*dT*dT*dT*d[5mC]*dT*dT*dG*eA*eG*e[5mC]*eA*e[5mC]; antisense) [compound 771433] | 0
771434 (eG*e[5mC]*e[5mC]*eG*e[5mC]*dT*d[5mC]*d[5mC]*dT*dT*d[5mC]*dA*dG*dT*dT*eT*e[5mC]*eT*eT*eG; antisense) [compound 771434] | 27
771435 (e[5mC]*eA*eG*e[5mC]*eT*dG*d[5mC]*d[5mC]*dG*d[5mC]*dT*d[5mC]*d[5mC]*dT*dT*e[5mC]*eA*eG*eT*eT; antisense) [compound 771435] | 29
771442 (e[5mC]*eT*e[5mC]*eT*eT*dG*dA*d[5mC]*dT*dT*d[5mC]*d[5mC]*dG*dA*dG*eG*eA*eA*eT*eG; antisense) [compound 771442] | 22
771443 (eG*e[5mC]*e[5mC]*eT*e[5mC]*dT*dT*dG*dA*d[5mC]*dT*dT*d[5mC]*d[5mC]*dG*eA*eG*eG*eA*eA; antisense) [compound 771443] | 30
771449 (eT*e[5mC]*eG*e[5mC]*eA*dG*dA*dG*dT*d[5mC]*dG*dG*d[5mC]*dT*dA*eA*eG*eG*eT*eG; antisense) [compound 771449] | 0
771450 (antisense e[5mC]*eT*eA*eG*eT*dT*d[5mC]*dG*d[5mC]*dA*dG*dA*dG*dT*d[5mC]*eG*eG*e[5mC]*eT*eA) [compound 771450] | 45
771465 (antisense eA*eT*e[5mC]*e[5mC]*eA*dG*dA*dG*dA*dG*dG*dG*d[5mC]*dT*d[5mC]*e[5mC]*eT*eG*eG*eA) [compound 771465] | 0
771466 (antisense eA*eA*eG*eA*eT*dA*dT*d[5mC]*d[5mC]*dA*dG*dA*dG*dA*dG*eG*eG*e[5mC]*eT*e[5mC]) [compound 771466] | 38
771467 (antisense e[5mC]*eA*eT*eA*eG*dA*dA*dG*dA*dT*dA*dT*d[5mC]*d[5mC]*dA*eG*eA*eG*eA*eG) [compound 771467] | 11

Same assay, conditions: electroporation, 15,000 nM, approximately 24 hours, relative to untreated control cells, gapmers targeting SEQ ID NO: 1 and 2

Substance | % inhibition of SMAD7 mRNA expression [%]
771422 (eA*eT*e[5mC]*e[5mC]*eA*dG*d[5mC]*d[5mC]*d[5mC]*dT*dG*d[5mC]*d[5mC]*d[5mC]*dG*eG*eG*e[5mC]*e[5mC]*eG; antisense) [compound 771422] | 27
771430 (e[5mC]*eG*e[5mC]*e[5mC]*e[5mC]*dG*d[5mC]*dG*dG*d[5mC]*dT*dG*dG*d[5mC]*dG*eG*eG*eT*eG*eG; antisense) [compound 771430] | 40
771438 (e[5mC]*e[5mC]*eA*e[5mC]*eG*dG*d[5mC]*d[5mC]*dT*dG*dG*dA*dG*d[5mC]*dA*eG*e[5mC]*eA*eG*e[5mC]; antisense) [compound 771438] | 26
771446 (e[5mC]*eA*e[5mC]*eA*eG*d[5mC]*d[5mC]*dT*d[5mC]*dT*dT*dG*dA*d[5mC]*dT*eT*e[5mC]*e[5mC]*eG*eA; antisense) [compound 771446] | 55
771462 (antisense e[5mC]*eT*eG*eG*eA*d[5mC]*dA*d[5mC]*dA*dG*dT*dA*dG*dA*dG*e[5mC]*e[5mC]*eT*e[5mC]*e[5mC]) [compound 771462] | 31
